Experimental data reported in article PMC11271178, “Effect of Added Salt on the RAFT Polymerization of 2-Hydroxyethyl Methacrylate in Aqueous Media” (Macromolecules, 2024).

Experiments:
[1] = cited from earlier work
[2] = Aqueous solubility of HEMA monomer vs added NaCl at 70 °C (gravimetric titration, visual end point); format: physicochemical
Method: Deionized water (2.0 g) was added to a pre-weighed vial equipped with a magnetic stir bar. This vial was placed in an oil bath set at 70 °C and allowed to equilibrate for 20 min. HEMA was added to a second pre-weighed vial and then added dropwise to the first vial at 70 °C. After the addition of each drop of HEMA, the aqueous HEMA mixture was stirred at 70 °C for 1 min. Visual inspection was used to judge the point at which the HEMA monomer droplets were no longer fully dissolved. […] This experiment was repeated with the deionized water being replaced with a series of aqueous salt solutions (up to 3 M NaCl).
However, its aqueous solubility strongly depends on the presence of salt. For example, the digital photograph shown in Figure 1 (blue frame) clearly illustrates the transition from fully soluble HEMA in 0–0.6 M NaCl to (partially) immiscible HEMA in the presence of 1.5 M NaCl. This change in physical appearance is used as the “end point” for a series of gravimetric titrations to determine the aqueous solubility of HEMA in various salt solutions at 70 °C. For example, HEMA solubility is reduced from 1305 g dm^–3 in 0.75 M NaCl to just 93 g dm^–3 in 3 M NaCl (see Figure 1). In principle, this should be sufficient for the mode of polymerization to switch from an aqueous dispersion polymerization to an aqueous emulsion polymerization. Moreover, added salt was also expected to lower the critical DP at which PHEMA chains become water-insoluble. Combining the salt-tunable aqueous solubility of HEMA with a suitable salt-tolerant precursor such as PMPC should facilitate a systematic study of the effect of added salt on the polymerization kinetics and copolymer morphology.

## C=C(C)C(=O)OCC(F)(F)F [2,2,2-trifluoroethyl methacrylate]
[1]
  aqueous solubility of monomer: ≤ 1 g dm^–3

## C=C(C)C(=O)OCCO [HEMA, 2-hydroxyethyl methacrylate]
[2]; 0.75 M NaCl, 70 °C
  aqueous solubility of HEMA: 1305 g dm^–3
[2]; 3 M NaCl, 70 °C
  aqueous solubility of HEMA: 93 g dm^–3
[2]; aqueous 1.5 M NaCl solution, water, 1.5 M NaCl, 70 °C, homogeneous at lower, emulsion at higher concentration, read-out: aqueous solubility of HEMA (homogeneous mixture vs emulsion)
  solubility at 1 min: ≥ 171 mg/mL
[2]; no added salt
  miscibility of HEMA with water: fully miscible with water in all proportions
[2]; up to 0.6 M NaCl, 70 °C
  miscibility of HEMA with water: water-miscible in all proportions

## C=C(C)C(=O)OCc1ccccc1 [benzyl methacrylate]
[1]
  aqueous solubility of monomer: ≤ 1 g dm^–3

## C=Cc1ccccc1 [styrene]
[1]
  aqueous solubility of monomer: ≤ 1 g dm^–3
